Results from US20260042755A1, “GPR6 INVERSE AGONISTS” (MapLight Therapeutics, Inc., priority 2022, published 2026).

What was measured:
[1] = target: T1, GPR6 (Homo sapiens, UniProt P46095); assay: GPR6 antagonist functional cAMP assay (LANCE Ultra cAMP TR-FRET, CHO cells stably expressing GPR6); format: cell-based
T1 construct: expressed in transfected cells; host or cells: CHO cells
Procedure, shortened: (§1)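 We measure cAMP by TR-FRET (665 nm) in cells held in glucose-containing Krebs-Ringer buffer with BSA and a PDE inhibitor, after a 45 min, 37 °C compound incubation. IC50s derive from a four-parameter logistic fit.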

[2] = target: T2, GPR3 (Homo sapiens, UniProt P46089); assay: GPR3 antagonist functional cAMP assay (LANCE Ultra cAMP TR-FRET, CHO cells stably expressing GPR3); format: cell-based
T2 construct: expressed in transfected cells; host or cells: CHO cells
T2 sequence (P46089 whole entry, species assumed): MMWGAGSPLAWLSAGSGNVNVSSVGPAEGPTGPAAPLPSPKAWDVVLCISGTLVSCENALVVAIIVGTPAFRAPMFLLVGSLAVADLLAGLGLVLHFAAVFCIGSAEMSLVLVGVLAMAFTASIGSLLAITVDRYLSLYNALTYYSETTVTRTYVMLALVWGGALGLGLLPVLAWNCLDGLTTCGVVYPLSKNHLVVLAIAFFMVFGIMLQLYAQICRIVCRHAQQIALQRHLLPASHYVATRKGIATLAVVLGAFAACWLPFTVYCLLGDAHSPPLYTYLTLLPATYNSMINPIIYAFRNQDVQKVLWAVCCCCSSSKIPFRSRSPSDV
Procedure, shortened: as §1

[3] = CHO cells stably expressing GPR6, cAMP assay
[4] = CHO cells stably expressing GPR3, cAMP assay
[5] = CHO cells stably expressing GPR6, cAMP assay (Example 24)
[6] = CHO cells stably expressing GPR3, cAMP assay (Example 24)
[7] = procedure as described in Example 24

T1 sequence (P46095 whole entry): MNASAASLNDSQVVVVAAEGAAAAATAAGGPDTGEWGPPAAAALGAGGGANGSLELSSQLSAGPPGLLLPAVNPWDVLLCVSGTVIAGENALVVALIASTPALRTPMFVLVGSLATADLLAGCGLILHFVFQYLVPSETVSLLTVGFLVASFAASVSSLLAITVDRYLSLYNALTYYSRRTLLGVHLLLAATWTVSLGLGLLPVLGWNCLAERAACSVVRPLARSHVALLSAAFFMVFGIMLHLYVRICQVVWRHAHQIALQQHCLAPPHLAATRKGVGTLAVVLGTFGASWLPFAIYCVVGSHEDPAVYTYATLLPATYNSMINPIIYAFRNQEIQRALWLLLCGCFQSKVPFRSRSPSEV

Structure (SMILES) | IC50 ([1]; procedure of Example 24) [µM] | IC50 ([2]; procedure of Example 24) [µM] | IC50 [1, 5] [µM] | IC50 [2, 6] [µM] | other results
CC(=O)N1CCc2nc(N3CCN(Cc4cc(F)ccc4F)CC3)c(-c3ccc(F)c(N)n3)nc2C1 [Compound 581, 1-[3-(6-amino-5-fluoro-2-pyridyl)-2-{4-[(2,5-difluorophenyl)methyl]-1-piperazinyl}-5,6,7,8-tetrahydro-1,4,6-triaza-6-naphthyl]-1-ethanone] |  |  |  |  | IC50 [1, 3]: < 0.1 µM; IC50 [2, 4]: 1 to 30 µM
COc1cccc(-c2nc3c(nc2N2CCN(Cc4cc(Cl)ccc4Cl)CC2)CCN(C(C)=O)C3)n1 [Compound 183, 1-(2-{4-[(2,5-dichlorophenyl)methyl]piperazin-1-yl}-3-(6-methoxypyridin-2-yl)-5H,6H,7H,8H-pyrido[3,4-b]pyrazin-6-yl)ethan-1-one] |  |  | < 0.1 | 1 to 30 | 
CCn1cc(-c2nc3c(nc2N2CCC(Oc4ccc(F)cc4F)CC2)CCN(C(=O)N(C)C)C3)cn1 [Compound 300, 2-[4-(2,4-difluorophenoxy)piperidin-1-yl]-3-(1-ethyl-1H-pyrazol-4-yl)-N,N-dimethyl-5H,6H,7H,8H-pyrido[3,4-b]pyrazine-6-carboxamide] | < 0.1 | 1 to 30 |  |  | 
Cn1cc(-c2nc3cnc(OC4COC4)cc3nc2N2CCC(Oc3ccc(F)cc3F)CC2)cn1 [Compound 382, 4-(2,4-difluorophenoxy)-1-[3-(1-methyl-1H-pyrazol-4-yl)-7-(oxetan-3-yloxy)pyrido[3,4-b]pyrazin-2-yl]piperidine] |  |  | 0.1 to 1 | 1 to 30 | 
CC(=O)N1CCc2nc(N3CCN(Cc4cc(F)cc(F)c4)CC3)c(-c3cnn(C)c3)nc2C1 [Compound 353, 1-(2-{4-[(3,5-difluorophenyl)methyl]piperazin-1-yl}-3-(1-methyl-1H-pyrazol-4-yl)-5H,6H,7H,8H-pyrido[3,4-b]pyrazin-6-yl)ethan-1-one] | 1 to 30 | 1 to 30 |  |  | 
CC(=O)N1CCc2nc(N3CCC(Oc4ccc(F)cc4F)CC3)c(-c3ccc(=O)n(C)c3)nc2C1 [Compound 21, 5-{6-acetyl-2-[4-(2,4-difluorophenoxy)piperidin-1-yl]-5H,6H,7H,8H-pyrido[3,4-b]pyrazin-3-yl}-1-methyl-1,2-dihydropyridin-2-one] |  |  |  |  | IC50 [1, 7]: 1 to 30 µM; IC50 [2, 7]: 1 to 30 µM
Cn1cc(-c2nc3cnc([C@@H](O)C(C)(C)O)cc3nc2N2CCN(Cc3ccc(F)cc3F)CC2)cn1 (single isomer, unassigned) [Compound 578] |  |  |  |  | IC50 [1, 3]: 0.1 to 1 µM; IC50 [2, 4]: 1 to 30 µM
CC(=O)N1CCc2nc(N3CCN(Cc4ccc(Cl)cc4Cl)CC3)c(-c3cnn(C)c3)nc2C1 [Compound 350, 1-(2-{4-[(2,4-dichlorophenyl)methyl]piperazin-1-yl}-3-(1-methyl-1H-pyrazol-4-yl)-5H,6H,7H,8H-pyrido[3,4-b]pyrazin-6-yl)ethan-1-one] | 1 to 30 | 1 to 30 |  |  | 
CC(=O)N1CCc2nc(N3CCC(Oc4ccc(F)cc4F)CC3)c(-c3cc[nH]c3)nc2C1 [Compound 46, 1-{2-[4-(2,4-difluorophenoxy)piperidin-1-yl]-3-(1H-pyrrol-3-yl)-5H,6H,7H,8H-pyrido[3,4-b]pyrazin-6-yl}ethan-1-one] |  |  |  |  | IC50 [1, 7]: 0.1 to 1 µM; IC50 [2, 7]: 1 to 30 µM
CC(=O)N1CCc2nc(-c3cn[nH]c3)c(N3CCC(Oc4ccc(F)cc4F)CC3)nc2C1 [Compound 115, 1-{3-[4-(2,4-difluorophenoxy)piperidin-1-yl]-2-(1H-pyrazol-4-yl)-5H,6H,7H,8H-pyrido[3,4-b]pyrazin-6-yl}ethan-1-one] |  |  | 0.1 to 1 | 1 to 30 | 
CCn1cc(-c2nc3cnc([C@@H](O)C(C)(C)O)cc3nc2N2CCN(Cc3ccc(F)cc3F)CC2)cn1 (single isomer, unassigned) [Compound 574] |  |  |  |  | IC50 [1, 3]: 0.1 to 1 µM; IC50 [2, 4]: 1 to 30 µM
CC(=O)N1CCc2nc(N3CCC(Oc4ccc(F)cc4F)CC3)c(-c3nccs3)nc2C1 [Compound 75, 1-{2-[4-(2,4-difluorophenoxy)piperidin-1-yl]-3-(1,3-thiazol-2-yl)-5H,6H,7H,8H-pyrido[3,4-b]pyrazin-6-yl}ethan-1-one] |  |  | 1 to 30 | 1 to 30 | 
CC(=O)N1CCc2nc(N3CCC(C(=O)N(C)c4ccc(F)cc4F)C3)c(-c3cnn(C)c3)nc2C1 (centres unmarked) [Compound 392, 1-[6-acetyl-3-(1-methyl-1H-pyrazol-4-yl)-5H,6H,7H,8H-pyrido[3,4-b]pyrazin-2-yl]-N-(2,4-difluorophenyl)-N-methylpyrrolidine-3-carboxamide] |  |  | ≥ 30 | 1 to 30 | 
Cn1cc(-c2nc3cnc(C4(O)COCC4O)cc3nc2N2CCC(Oc3ccc(F)cc3F)CC2)cn1 (centres unmarked) [Compound 412, 3-{2-[4-(2,4-difluorophenoxy)piperidin-1-yl]-3-(1-methyl-1H-pyrazol-4-yl)pyrido[3,4-b]pyrazin-7-yl}oxolane-3,4-diol] |  |  | 1 to 30 | 1 to 30 | 
CC(=O)N1CCc2nc(N3CCC(Oc4ccc(F)cc4F)CC3)c(-c3cccn(C)c3=O)nc2C1 [Compound 113, 3-{6-acetyl-2-[4-(2,4-difluorophenoxy)piperidin-1-yl]-5H,6H,7H,8H-pyrido[3,4-b]pyrazin-3-yl}-1-methyl-1,2-dihydropyridin-2-one] |  |  | 1 to 30 | ≥ 30 | 
Cn1cc(-c2nc3cnc(C[C@H](O)CO)cc3nc2N2CCC(Oc3ccc(F)cc3F)CC2)cn1 (single isomer, unassigned) [Compound 416] |  |  | 0.1 to 1 | 1 to 30 | 
CC(=O)N1CCc2nc(N3CCN(Cc4c(F)cccc4F)CC3)c(-c3cnn(C)c3)nc2C1 [Compound 346, 1-(2-{4-[(2,6-difluorophenyl)methyl]piperazin-1-yl}-3-(1-methyl-1H-pyrazol-4-yl)-5H,6H,7H,8H-pyrido[3,4-b]pyrazin-6-yl)ethan-1-one] | 1 to 30 | 0.1 to 1 |  |  | 
CC(=O)N1Cc2nc(-c3cnn(C)c3)c(N3CCC(Oc4ccc(F)cc4F)CC3)nc2C(C)C1 (centres unmarked) [Compound 540, 1-{2-[4-(2,4-difluorophenoxy)-1-piperidyl]-8-methyl-3-(1-methyl-4-pyrazolyl)-5,6,7,8-tetrahydro-1,4,6-triaza-6-naphthyl}-1-ethanone] |  |  |  |  | IC50 [1, 3]: < 0.1 µM; IC50 [2, 4]: 1 to 30 µM
CC(=O)N1CCc2nc(N3CCN(Cc4ccc(=O)n(C)c4)CC3)c(-c3cnn(C)c3)nc2C1 [Compound 535, 5-({4-[6-acetyl-3-(1-methyl-4-pyrazolyl)-5,6,7,8-tetrahydro-1,4,6-triaza-2-naphthyl]-1-piperazinyl}methyl)-1-methyl-2(1H)-pyridinone] |  |  |  |  | IC50 [1, 3]: ≥ 30 µM; IC50 [2, 4]: ≥ 30 µM
CC(=O)N1CCc2nc(N3CCC(Oc4cccc(F)c4F)CC3)c(-c3cnn(C)c3)nc2C1 [Compound 423, 1-{2-[4-(2,3-difluorophenoxy)piperidin-1-yl]-3-(1-methyl-1H-pyrazol-4-yl)-5H,6H,7H,8H-pyrido[3,4-b]pyrazin-6-yl}ethan-1-one] |  |  | 1 to 30 | 1 to 30 | 
CC(=O)N1CCc2nc(N3CCC(C(=O)N4CCOCC4)C3)c(-c3cnn(C)c3)nc2C1 (centres unmarked) [Compound 389, 1-[3-(1-methyl-1H-pyrazol-4-yl)-2-[3-(morpholine-4-carbonyl)pyrrolidin-1-yl]-5H,6H,7H,8H-pyrido[3,4-b]pyrazin-6-yl]ethan-1-one] |  |  | ≥ 30 | 1 to 30 | 
CC(=O)N1CCc2nc(N3CCC(Oc4ccc(F)cc4F)CC3)c(C3CCC(O)CC3)nc2C1 (centres unmarked) [Compound 374, 1-(2-(4-(2,4-difluorophenoxy)piperidin-1-yl)-3-(4-hydroxycyclohexyl)-7,8-dihydropyrido[3,4-b]pyrazin-6(5H)-yl)ethan-1-one] | 1 to 30 | 1 to 30 |  |  | 
CC(=O)N1CCc2nc(N3CCC(Oc4ccc(F)cc4F)CC3)c(-c3cccc(N(C)C)n3)nc2C1 [Compound 48, 1-{2-[4-(2,4-difluorophenoxy)piperidin-1-yl]-3-[6-(dimethylamino)pyridin-2-yl]-5H,6H,7H,8H-pyrido[3,4-b]pyrazin-6-yl}ethan-1-one] |  |  |  |  | IC50 [1, 7]: 1 to 30 µM; IC50 [2, 7]: 1 to 30 µM
CC(C)(O)C(O)c1cc2nc(-c3cnn(C(F)F)c3)c(N3CCC(Oc4ccc(F)cc4F)CC3)nc2cn1 (single isomer, unassigned) [Compound 584] |  |  |  |  | IC50 [1, 3]: < 0.1 µM; IC50 [2, 4]: 1 to 30 µM
Cn1cc(-c2nc3cnc([C@](C)(O)CO)cc3nc2N2CCC(Oc3ccc(F)cc3F)CC2)cn1 (single isomer, unassigned) [Compound 565] |  |  |  |  | IC50 [1, 3]: 1 to 30 µM; IC50 [2, 4]: 1 to 30 µM

Continued, in another order:

IC50 ([1]; procedure of Example 24) [µM] | IC50 ([2]; procedure of Example 24) [µM] | IC50 [1, 5] [µM] | IC50 [2, 6] [µM] | Structure (SMILES) | other results
0.1 to 1 | 1 to 30 |  |  | CC(C)(O)C(C)(O)c1cc2nc(-c3cnn(C4CC4)c3)c(N3CCC(Oc4ccc(F)cc4F)CC3)nc2cn1 (single isomer, unassigned) [Compound 721] | 
0.1 to 1 | 1 to 30 |  |  | CO[C@@H](CO)c1cc2nc(N3CCC(Oc4ccc(F)cc4F)CC3)c(-c3cnn(C)c3)nc2cn1 (single isomer, unassigned) [Compound 640] | 
0.1 to 1 | 1 to 30 |  |  | CC(C)(O)[C@@](C)(O)c1cc2nc(N3CCN(Cc4ccc(F)cc4F)CC3)c(-c3cnn(C4CC4)c3)nc2cn1 (single isomer, unassigned) [Compound 667] | 
0.1 to 1 | 1 to 30 |  |  | CC(C)(O)C(=O)c1cc2nc(N3CCN(Cc4ccc(F)cc4F)CC3)c(-c3cnn(C4CC4)c3)nc2cn1 [Compound 619, 1-[3-(1-cyclopropyl-4-pyrazolyl)-2-{4-[(2,4-difluorophenyl)methyl]-1-piperazinyl}-1,4,6-triaza-7-naphthyl]-2-hydroxy-2-methyl-1-propanone] | 
 |  | 1 to 30 | 1 to 30 | Cn1cc(-c2nc3cnc(N4CCOCC4)cc3nc2N2CCC(Oc3ccc(F)cc3F)CC2)cn1 [Compound 449, 4-{2-[4-(2,4-difluorophenoxy)piperidin-1-yl]-3-(1-methyl-1H-pyrazol-4-yl)pyrido[3,4-b]pyrazin-7-yl}morpholine] | 
0.1 to 1 | 1 to 30 |  |  | CC(C)(O)[C@H](O)c1cc2nc(N3CCN(Cc4ccccc4F)CC3)c(-c3cnn(CF)c3)nc2cn1 (single isomer, unassigned) [Compound 648] | 
